Test results as given in patent publication US20190343932A1, “NOVEL TREATMENTS” (ENZYMATICA AB, priority 2014, published 2019).
Where a SMILES comes first, the peptide text is derived from it. The star is where a group is joined. pNA = O=[N+]([O-])c1ccc(N*)cc1; Cbz = O=C(OCc1ccccc1)*

Experiments:
Experiment in all cases: Activity assay to determine kinetic constants
Assay type in all cases: biochemical
[1] = target: Atlantic cod (Gadus morhua) trypsin I (SEQ ID NO: 1) variant EZA-002, D217S, T218N, S69K (Gadus morhua, UniProt P16049, D236S/S88K/T237N)
Excerpt: (§1) The following polypeptides were obtained or produced: • (a) Wldtype trypsin I purified from Atlantic cod (“WT-Tryp” or “wildtype”); • (b) Recombinantly expressed wildtype trypsin I of Atlantic cod (SEQ ID NO:1, “R-Tryp”); and • (c) Thirty-eight different mutated versions of trypsin I of Atlantic cod (i.e. mutated sequences of SEQ ID NO:1).
(§2) Polypeptides corresponding to the wildtype amino acid sequence of trypsin I from Atlantic cod and thirty-eight mutated versions thereof were produced using the methods described in Example C.
(§3) Activation of recombinant enzymes (approximately 0.01 mg/ml) was achieved by adding wild type trypsin (0.2 U/ml) at room temperature and incubate for 24 hours. The mixture was made in 20 mM Tris-HCl, 1 mM CaCl2, 50% glycerol, pH 8.0 to a final volume of 200 μl.
(§4) The substrate (Gly-Pro-Arg) was used at concentrations 0.005-0.15 mM in assay buffer containing 1% DMSO. 245 μL of substrate solutions were pipetted into a 96-well plate. The reaction was started by adding 5 μL of the sample mixture (above) and monitored at 410 nm in a SpectraMax plate reader. Kinetic measurement was performed every minute of a continuous 15-min run.

[2] = target: Atlantic cod (Gadus morhua) trypsin I (SEQ ID NO: 1) variant EZA-003, K133T (Gadus morhua, UniProt P16049, K152T)
Excerpt: as §1, §2, §3, §4

[3] = target: Atlantic cod (Gadus morhua) trypsin I (SEQ ID NO: 1) variant EZA-004, K133L (Gadus morhua, UniProt P16049, K152L)
Excerpt: as §1, §2, §3, §4

[4] = target: Atlantic cod (Gadus morhua) trypsin I (SEQ ID NO: 1) variant EZA-005, K133V (Gadus morhua, UniProt P16049, K152V)
Excerpt: as §1, §2, §3, §4

[5] = target: Atlantic cod (Gadus morhua) trypsin I (SEQ ID NO: 1) variant EZA-006, K133E (Gadus morhua, UniProt P16049, K152E)
Excerpt: as §1, §2, §3, §4

[6] = target: Atlantic cod (Gadus morhua) trypsin I (SEQ ID NO: 1) variant EZA-007, N80T (Gadus morhua, UniProt P16049, N99T)
Excerpt: as §1, §2, §3, §4

[7] = target: Atlantic cod (Gadus morhua) trypsin I (SEQ ID NO: 1) variant EZA-008, I81L (Gadus morhua, UniProt P16049, I100L)
Excerpt: as §1, §2, §3, §4

[8] = target: Atlantic cod (Gadus morhua) trypsin I (SEQ ID NO: 1) variant EZA-009, L165G, P202Y (Gadus morhua, UniProt P16049, L184G/P221Y)
Excerpt: as §1, §2, §3, §4

[9] = target: T1, Atlantic cod (Gadus morhua) trypsin I, recombinant wildtype EZA-001 (no mutations), SEQ ID NO: 1 (Gadus morhua, UniProt P16049)
T1 construct: mature trypsin from MEEDK-zymogen
T1 sequence (P16049 20-241): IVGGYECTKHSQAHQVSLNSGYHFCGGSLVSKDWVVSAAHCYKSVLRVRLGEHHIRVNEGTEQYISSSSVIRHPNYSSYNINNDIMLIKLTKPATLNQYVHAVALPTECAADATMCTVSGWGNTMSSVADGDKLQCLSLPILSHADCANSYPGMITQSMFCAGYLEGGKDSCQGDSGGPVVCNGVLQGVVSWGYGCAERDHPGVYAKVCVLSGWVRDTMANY
Excerpt: as §1, §2, §3, §4

[10] = target: T2, Atlantic cod (Gadus morhua) trypsin I, wildtype, purified from Atlantic cod (WT-Trp), SEQ ID NO: 1 (Gadus morhua, UniProt P16049); settings: reference
T2 sequence (P16049 20-241): T1 sequence (P16049 20-241)
Excerpt: as §1, §2, §3, §4

Chain of Atlantic cod (Gadus morhua) trypsin I (SEQ ID NO: 1) variant EZA-005, K133V (P16049 20-241 K152V): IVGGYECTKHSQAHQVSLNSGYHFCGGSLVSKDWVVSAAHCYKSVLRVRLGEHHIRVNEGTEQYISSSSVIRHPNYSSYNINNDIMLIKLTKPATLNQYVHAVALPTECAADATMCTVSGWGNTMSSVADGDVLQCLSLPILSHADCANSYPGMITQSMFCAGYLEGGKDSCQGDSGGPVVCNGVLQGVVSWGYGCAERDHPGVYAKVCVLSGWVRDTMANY
Chain of Atlantic cod (Gadus morhua) trypsin I (SEQ ID NO: 1) variant EZA-004, K133L (P16049 20-241 K152L): as the sequence (P16049 20-241 K152V) above, with V133L counted along it
Chain of Atlantic cod (Gadus morhua) trypsin I (SEQ ID NO: 1) variant EZA-003, K133T (P16049 20-241 K152T): as the sequence (P16049 20-241 K152V) above, with V133T counted along it
Chain of Atlantic cod (Gadus morhua) trypsin I (SEQ ID NO: 1) variant EZA-008, I81L (P16049 20-241 I100L): as the sequence (P16049 20-241 K152V) above, with I81L, V133K counted along it
Chain of Atlantic cod (Gadus morhua) trypsin I (SEQ ID NO: 1) variant EZA-002, D217S, T218N, S69K (P16049 20-241 S88K/D236S/T237N): as the sequence (P16049 20-241 K152V) above, with S69K, V133K, D217S, T218N counted along it
Chain of Atlantic cod (Gadus morhua) trypsin I (SEQ ID NO: 1) variant EZA-007, N80T (P16049 20-241 N99T): as the sequence (P16049 20-241 K152V) above, with N80T, V133K counted along it
Chain of Atlantic cod (Gadus morhua) trypsin I (SEQ ID NO: 1) variant EZA-006, K133E (P16049 20-241 K152E): as the sequence (P16049 20-241 K152V) above, with V133E counted along it
Chain of Atlantic cod (Gadus morhua) trypsin I (SEQ ID NO: 1) variant EZA-009, L165G, P202Y (P16049 20-241 L184G/P221Y): as the sequence (P16049 20-241 K152V) above, with V133K, L165G, P202Y counted along it

Question: For `N=C(N)NCCC[C@H](NC(=O)[C@@H]1CCCN1C(=O)CNC(=O)OCc1ccccc1)C(=O)Nc1ccc([N+](=O)[O-])cc1` [Gly-Pro-Arg, Cbz-Gly-Pro-Arg-p-nitroanilide] (Cbz-Gly-Pro-Arg-pNA), which “Vmax, relative to WT-Trp” value [1] is on record?
Answer: The value was 99.

Question: And the “Vmax, relative to WT-Trp” value [2]?
Answer: The value was 96.

Question: And the “Vmax, relative to WT-Trp” value [3]?
Answer: The value was 82.

Question: And the “Vmax, relative to WT-Trp” value [4]?
Answer: The value was 96.

Question: What about the “Vmax, relative to WT-Trp” value [5] of the same molecule?
Answer: Its value is 98.

Question: And the “Vmax, relative to WT-Trp” value [6]?
Answer: The value was 99.

Question: What about the “Vmax, relative to WT-Trp” value [7] of the same molecule?
Answer: Its value is 95.

Question: What about the “Vmax, relative to WT-Trp” value [8] of the same molecule?
Answer: The value was 98.

Question: What about the “Vmax, relative to WT-Trp” value [9] of the same molecule?
Answer: The value was 99.

Question: And the “Vmax (Kcat), relative to WT-Trp” value [10]?
Answer: Its value is 100.
